Results: PMC5295233, “Biochemical and Structural Insights into a Novel Thermostable β-1,3-Galactosidase from Marinomonas sp. BSi20414” (Marine Drugs, 2017)

Tested on: T1, MaBGA (β-galactosidase from Marinomonas sp. BSi20414)
T1 construct: native enzyme purified from the wild-type strain (ammonium sulfate, HiTrap DEAE FF); GH42; catalytic Glu142 and Glu314; no tag
Experiment: release of o-nitrophenol at […] nm, nonlinear Michaelis-Menten fit
Type: biochemical
Details: apparent Km; 50 mM PBS pH 7.0 (standard assay); ONPG 0.1-19 mM; temperature not given

O=[N+]([O-])c1ccccc1O[C@@H]1O[C@H](CO)[C@H](O)[C@H](O)[C@H]1O [ONPG, o-nitrophenyl-β-D-galactopyranoside]
Km: 14.2 mM
